Where two headings read alike, the source gives them in different places.
Assays:
[1] = target: T1, KARs (Mus musculus, UniProt P39087+Q61626); type: cell-based
T1 construct: from tissue; host or cells: dentate granule cells in pilocarpine-treated organotypic hippocampal/entorhinal slice cultures from WT mice (FVB/N)
Protocol: (§1) Hippocampal/entorhinal cortex slices (350 μm) were prepared from pre-genotyped GluK2−/− and WT mice (P9-10, FVB/N background) using a McIlwain tissue chopper. Slices were placed on mesh inserts (Millipore # PICMORG50) inside culture dishes containing 1 ml of the following medium: MEM 50%, HS 25%, HBSS 25%, HEPES 15 mM glucose 6.5 mg/ml and insulin 0.1 mg/ml. Culture medium was changed every 2-3 days and slices maintained in an incubator at 37° C./5% CO2. Pilocarpine (0.5 μM) was added to the medium at 5 D.I.V and removed at 7 D.I.V; slices were utilized for experiments from 9 D.I.V.
Cultured or acute slices were individually transferred to a recording chamber maintained at 30-32° C. and continuously perfused (2 ml/min) with oxygenated normal or adapted ACSF containing 5 μM gabazine. Local field potentials were made in the granule cell layer of the DG with glass electrodes (2-3 MΩ; filled with normal ACSF) using a DAM-80 amplifier (low filter, 1 Hz; […], 3 KHz; World Precision Instruments, Sarasota, Fla.). For evoked synaptic transmission, electrical stimulation was performed with a bipolar NiCh electrode (#762000, AM systems). […] Signals were analyzed off-line using Clampfit 9.2 (PClamp) and MiniAnalysis 6.0.1 (Synaptosoft, Decatur, Ga.). In organotypic slices, spontaneous EPSCs were recorded at the reversal potential for GABAergic currents (Vh=−70 mV). To characterize the nature and kinetic properties of fast and slow events, miniature EPSCs (mEPSCs) evoked in Sr2+ conditions (external Ca2+ was substituted with 1.2 mM Sr2+) were recorded in DGCs from GluK2−/− and WT slices. Electrical stimulation was made in the molecular layer in the continued presence of 5 μM gabazine and 40 μM D-APV; asynchronous mEPSCs were measured during the 300 ms period after the stimulus artifact. […] Filtered traces were also analyzed by Fourier analysis (Hamming) using Clampfit 9.2. In acute hippocampal slices, intensity of antidromically-evoked bursts was quantified using coastline index (Epsztein et al., 2005).

[2] = tested on: AMPARs; experiment: Remaining fast (AMPAR-mediated) EPSCs in dentate granule cells of GluK2-/- organotypic slices; type: cell-based, mouse; conditions: 30 μM, data not shown
Protocol: as §1
Cultured or acute slices were individually transferred to a recording chamber maintained at 30-32° C. and continuously perfused (2 ml/min) with oxygenated normal or adapted ACSF containing 5 μM gabazine. […] Signals were analyzed off-line using Clampfit 9.2 (PClamp) and MiniAnalysis 6.0.1 (Synaptosoft, Decatur, Ga.). In organotypic slices, spontaneous EPSCs were recorded at the reversal potential for GABAergic currents (Vh=−70 mV). To characterize the nature and kinetic properties of fast and slow events, miniature EPSCs (mEPSCs) evoked in Sr2+ conditions (external Ca2+ was substituted with 1.2 mM Sr2+) were recorded in DGCs from GluK2−/− and WT slices. […] Filtered traces were also analyzed by Fourier analysis (Hamming) using Clampfit 9.2. […]

[3] = tested on: dentate gyrus of organotypic slices; experiment: Spontaneous interictal-like activity, extracellular field recordings in pilocarpine-treated organotypic hippocampal slice cultures; type: cell-based, mouse
Protocol: as §1
Cultured or acute slices were individually transferred to a recording chamber maintained at 30-32° C. and continuously perfused (2 ml/min) with oxygenated normal or adapted ACSF containing 5 μM gabazine. Local field potentials were made in the granule cell layer of the DG with glass electrodes (2-3 MΩ; filled with normal ACSF) using a DAM-80 amplifier (low filter, 1 Hz; […], 3 KHz; World Precision Instruments, Sarasota, Fla.). For evoked synaptic transmission, electrical stimulation was performed with a bipolar NiCh electrode (#762000, AM systems). Whole-cell voltage-clamp recordings of DGCs were made using tight-seal electrodes (5-8 MΩ) filled with an internal solution containing the following (in mM): 135 gluconic acid, 135 CsOH, 10 MgCl2, 0.1 CaCl2, 1 EGTA, 10 HEPES, 2 MgATP, 0.4 NaGTP, and 0.5% biocytin, pH 7.25. We used a Multiclamp 700B amplifier (Molecular Devices): data were filtered at 2 kHz, digitized (20 kHz) with a Digidata 1440A (Molecular Devices) to a PC, and acquired using Clampex 10.1 software (PClamp, Molecular Devices). Signals were analyzed off-line using Clampfit 9.2 (PClamp) and MiniAnalysis 6.0.1 (Synaptosoft, Decatur, Ga.). In organotypic slices, spontaneous EPSCs were recorded at the reversal potential for GABAergic currents (Vh=−70 mV). To characterize the nature and kinetic properties of fast and slow events, miniature EPSCs (mEPSCs) evoked in Sr2+ conditions (external Ca2+ was substituted with 1.2 mM Sr2+) were recorded in DGCs from GluK2−/− and WT slices. Electrical stimulation was made in the molecular layer in the continued presence of 5 μM gabazine and 40 μM D-APV; asynchronous mEPSCs were measured during the 300 ms period after the stimulus artifact. […] In cultured slices, visual representation of time-frequency analysis of local field potentials was performed using Autosignal software (Seasolve 1.7). In brief, field activity was highpass-filtered (>100 Hz) and time-frequency analysis performed using a continuous wavelet (Morlet) that reported integrated power (time-integral-squared amplitude, TISA) across time. Filtered traces were also analyzed by Fourier analysis (Hamming) using Clampfit 9.2. In acute hippocampal slices, intensity of antidromically-evoked bursts was quantified using coastline index (Epsztein et al., 2005).
The role of KARs in spontaneous epileptiform activity was then tested using extracellular field recordings in cultured slices. Recordings were performed in 5 mM K+-containing ACSF and in the presence of 5 μM gabazine in order to enhance neuronal excitability and to reliably record stereotyped spontaneous interictal-like activity (Berdichevsky et al., 2012).

[4] = tested on: KAR-mediated EPSCs at mossy fiber synapses; experiment: Evoked KAR-mediated EPSCs at recurrent mossy fiber synapses in acute hippocampal slices from pilocarpine-treated mice; type: cell-based, mouse; conditions: 1 μM; DGCs from WT pilocarpine-treated mice; data not shown
Protocol: All experiments were approved by the Institut National de la Santé et de la Recherche Médicale animal care and use committee of May 29, 2001 (2001-464) and the European community council directive of Nov. 24, 1986 (86/609/EEC). Mice (FVB/N background) had access to food and water ad libitum and were housed under a 12 h light/dark cycle at 22-24° C. Male GluK2−/− and WT mice (P60-80) were given scopolamine (1 mg/kg) subcutaneously (s.c.) 15 minutes prior to s.c. administration of pilocarpine (200-600 mg/kg). A ramp protocol was used whereby animals were given an initial dose of 200 mg/kg followed by half-doses every 30 minutes until seizures appeared. […] Diazepam (10 mg/kg) was administered 45 minutes after onset of SE. […]
Cultured or acute slices were individually transferred to a recording chamber maintained at 30-32° C. and continuously perfused (2 ml/min) with oxygenated normal or adapted ACSF containing 5 μM gabazine. […] Signals were analyzed off-line using Clampfit 9.2 (PClamp) and MiniAnalysis 6.0.1 (Synaptosoft, Decatur, Ga.). In organotypic slices, spontaneous EPSCs were recorded at the reversal potential for GABAergic currents (Vh=−70 mV). To characterize the nature and kinetic properties of fast and slow events, miniature EPSCs (mEPSCs) evoked in Sr2+ conditions (external Ca2+ was substituted with 1.2 mM Sr2+) were recorded in DGCs from GluK2−/− and WT slices. […]

[5] = slices from WT mice, 10 μM SYM2081 or 5 μM UBP310

T1 sequence (P39087 32-908): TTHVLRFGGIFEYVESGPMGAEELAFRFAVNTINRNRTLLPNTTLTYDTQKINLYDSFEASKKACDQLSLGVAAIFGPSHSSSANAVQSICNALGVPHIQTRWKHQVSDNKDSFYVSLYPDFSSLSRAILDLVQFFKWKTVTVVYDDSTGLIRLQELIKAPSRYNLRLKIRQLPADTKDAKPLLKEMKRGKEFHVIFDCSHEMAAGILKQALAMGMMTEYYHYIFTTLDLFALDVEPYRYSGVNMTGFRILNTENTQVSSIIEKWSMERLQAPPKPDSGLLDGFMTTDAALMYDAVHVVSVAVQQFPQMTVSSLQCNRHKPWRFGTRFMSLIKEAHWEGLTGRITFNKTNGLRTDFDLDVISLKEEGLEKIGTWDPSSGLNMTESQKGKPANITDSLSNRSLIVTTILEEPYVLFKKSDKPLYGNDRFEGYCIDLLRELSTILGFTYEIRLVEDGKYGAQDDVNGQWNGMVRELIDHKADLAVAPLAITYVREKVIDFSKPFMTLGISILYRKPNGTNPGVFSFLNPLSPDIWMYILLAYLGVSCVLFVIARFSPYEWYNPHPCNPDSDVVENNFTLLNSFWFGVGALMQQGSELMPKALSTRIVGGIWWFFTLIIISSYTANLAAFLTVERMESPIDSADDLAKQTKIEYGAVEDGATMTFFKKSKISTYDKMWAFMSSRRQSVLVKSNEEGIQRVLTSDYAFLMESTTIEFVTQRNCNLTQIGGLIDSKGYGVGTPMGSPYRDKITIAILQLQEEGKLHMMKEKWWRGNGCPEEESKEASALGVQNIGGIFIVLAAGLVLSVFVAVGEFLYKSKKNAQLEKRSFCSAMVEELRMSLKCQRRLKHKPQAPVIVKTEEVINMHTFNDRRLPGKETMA
T1 sequence (Q61626 15-979): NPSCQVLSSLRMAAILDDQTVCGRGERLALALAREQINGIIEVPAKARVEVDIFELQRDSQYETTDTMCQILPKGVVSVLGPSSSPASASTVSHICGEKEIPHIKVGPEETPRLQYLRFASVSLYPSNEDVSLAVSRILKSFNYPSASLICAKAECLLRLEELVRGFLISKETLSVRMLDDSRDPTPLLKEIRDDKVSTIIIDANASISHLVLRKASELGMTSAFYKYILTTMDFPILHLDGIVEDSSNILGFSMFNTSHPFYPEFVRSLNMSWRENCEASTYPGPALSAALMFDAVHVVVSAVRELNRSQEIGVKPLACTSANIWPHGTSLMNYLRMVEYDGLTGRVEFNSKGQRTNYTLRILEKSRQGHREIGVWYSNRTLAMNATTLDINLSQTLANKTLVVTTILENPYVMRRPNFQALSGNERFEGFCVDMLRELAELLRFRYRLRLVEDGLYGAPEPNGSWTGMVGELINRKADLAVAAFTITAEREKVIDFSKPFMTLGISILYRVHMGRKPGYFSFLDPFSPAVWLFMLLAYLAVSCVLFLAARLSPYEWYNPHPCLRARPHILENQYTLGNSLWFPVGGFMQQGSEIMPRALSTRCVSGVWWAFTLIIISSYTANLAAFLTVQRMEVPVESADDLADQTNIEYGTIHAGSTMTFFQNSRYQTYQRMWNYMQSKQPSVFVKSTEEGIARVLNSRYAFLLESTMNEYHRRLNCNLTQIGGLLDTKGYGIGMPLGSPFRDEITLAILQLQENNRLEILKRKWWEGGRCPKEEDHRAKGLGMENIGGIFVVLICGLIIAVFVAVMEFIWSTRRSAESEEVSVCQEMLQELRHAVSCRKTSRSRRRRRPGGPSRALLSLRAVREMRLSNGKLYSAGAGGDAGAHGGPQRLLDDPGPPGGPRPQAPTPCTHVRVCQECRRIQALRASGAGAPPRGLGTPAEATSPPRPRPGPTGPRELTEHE

CNC(=O)N1N=C(c2ccc(N)cc2)c2cc3c(cc2CC1C)OCO3 (stereo not drawn) [GYKI53655]
effect on KAR-mediated mEPSCs ([1]; WT cultured slices, SYM2081 10 μM, UBP310 5 μM, Sr2+ conditions, 5 μM gabazine, 40 μM D-APV): insensitive | block of remaining fast EPSCs [2]: fully blocked

NS(=O)(=O)c1cc2c(cc1Cl)NC(C1CC3C=CC1C3)NS2(=O)=O (stereo not drawn) [CTZ, cyclothiazide]
recovery of reduced interictal-like activity in GluK2-/- slices ([3]; GluK2-/- slices, bath application): could be recovered

N[C@H](C(=O)O)C1[C@@H](C(=O)O)[C@@H]1C(=O)O (stereo partly drawn) [DCGIV]
inhibition of KAR-mediated EPSCs [4]: 84%

C[C@H](C[C@H](N)C(=O)O)C(=O)O [SYM2081, (2S,4R)-4-Methylglutamate]
alteration of the PD phase (power of paroxysmal discharge) [3, 5]: No significant alteration | reduction of power of the bursts in the late MB phase [3, 5]: 68% | reduction of frequency of interictal-like activity ([3]; slices from WT mice, 10 μM SYM2081 or 5 μM UBP310, 5 mM K+ ACSF, 5 μM gabazine): 47% | frequency of interictal-like activity ([3]; slices from WT mice, 10 μM SYM2081 or 5 μM UBP310, without antagonist 3.2±0.4, mean±SEM): 1.69±0.3 events/min | effect on KAR-mediated mEPSCs [1]: abolished
